Assay results published in patent US20080227710A1, “Use of Conjugates of Doxorubicin with Lactosaminated Albumin” (priority 2005, published 2008).

Test: DOXO concentrations in HCCs, heart and intestine of rats with DENA-induced HCCs
Type: in vivo, rat
Conditions: 4 h after i.v. injection, DOXO measured as free drug, mean ± standard error
Procedure: HCCs were induced by diethyInitrosamine (DENA) given in the drinking water (100 mg/l) for 8 weeks. […] Compounds were injected in the dorsal vein of penis, in a volume of 10 μl/10 g body weight, under isoflurane anaesthesia. For each compound four rats were used. Four hours after the injection the animals were killed under isoflurane anaesthesia. Organs were rapidly removed and frozen and neoplastic nodules were accurately dissected from the surrounding liver. A part of each tumor nodule was frozen; the other part was fixed in 10% formalin and processed for histology. Samples of frozen organs and nodules were used for radioactivity count and determination of DOXO levels. DOXO was measured according to Bots A M, et al. (Analysis of adriamycin . . . J Chromatogr 1983; 272: 421-427), with modifications (Di Stefano G, et al. Doxorubicin coupled to lactosaminated . . . Dig Liver Dis 2003; 35: 428-433).

DOXO concentration, nmoles DOXO/g, Heart (heart): 4.7 ± 0.3 nmoles DOXO/g
DOXO concentration, nmoles DOXO/g, Intestine (intestine): 4.2 ± 0.6 nmoles DOXO/g
DOXO concentration, nmoles DOXO/g, MD HCCs (moderately differentiated HCCs): 3.1 ± 0.4 nmoles DOXO/g
DOXO concentration, nmoles DOXO/g, PD HCCs (poorly differentiated HCCs): 3.6 ± 0.4 nmoles DOXO/g
DOXO concentration, nmoles DOXO/g, WD HCCs (well differentiated HCCs): 3.4 ± 0.6 nmoles DOXO/g
Structure (SMILES): COc1cccc2c1C(=O)c1c(O)c3c(c(O)c1C2=O)C[C@@](O)(C(=O)CO)C[C@@H]3O[C@H]1C[C@H](N)[C@H](O)[C@H](C)O1 [DOXO, doxorubicin]
